± gives the expanded uncertainty stated by the source.
Experiment: xn = mol fraction of the nth substance listed
Settings: 101 kPa, Liquid; for viscosity: Falling or rolling sphere viscometry; for mass density: Vibrating tube method

CC[N+]1(C)CCOCC1.[Br-] [N-ethyl-N-methylmorpholinium bromide] + O
Settings	mass density [kg/m3]	viscosity [mPa·s]
298.15 K, x1 = 0.023	1062.6 ± 0.5	1.197 ± 0.072
298.15 K, x1 = 0.045	1111.8 ± 0.5	1.56 ± 0.094
298.15 K, x1 = 0.07	1156 ± 0.4	2.228 ± 0.14
298.15 K, x1 = 0.1	1197.3 ± 0.4	3.5 ± 0.21
298.15 K, x1 = 0.128	1227 ± 0.3	5.195 ± 0.32
298.15 K, x1 = 0.16	1254.9 ± 0.4	8.371 ± 0.51
298.15 K, x1 = 0.192	1278.3 ± 0.4	13.81 ± 0.84
298.15 K, x1 = 0.22	1295.2 ± 0.4	22.13 ± 1.3
298.15 K, x1 = 0.252	1311.3 ± 0.5	37.25 ± 2.3
303.15 K, x1 = 0.023	1060.7 ± 0.5	1.06 ± 0.064
303.15 K, x1 = 0.045	1109.6 ± 0.5	1.391 ± 0.084
303.15 K, x1 = 0.07	1153.6 ± 0.4	1.983 ± 0.12
303.15 K, x1 = 0.1	1194.6 ± 0.4	3.126 ± 0.19
303.15 K, x1 = 0.128	1224.2 ± 0.3	4.423 ± 0.27
303.15 K, x1 = 0.16	1252 ± 0.4	7.156 ± 0.43
303.15 K, x1 = 0.192	1275.3 ± 0.4	11.53 ± 0.7
303.15 K, x1 = 0.22	1292.1 ± 0.4	18.2 ± 1.1
303.15 K, x1 = 0.252	1308.2 ± 0.5	29.81 ± 1.8
308.15 K, x1 = 0.023	1058.6 ± 0.5	0.961 ± 0.058
308.15 K, x1 = 0.045	1107.3 ± 0.5	1.254 ± 0.076
308.15 K, x1 = 0.07	1151 ± 0.4	1.778 ± 0.11
308.15 K, x1 = 0.1	1191.8 ± 0.4	2.816 ± 0.17
308.15 K, x1 = 0.128	1221.3 ± 0.3	3.944 ± 0.24
308.15 K, x1 = 0.16	1249 ± 0.4	6.192 ± 0.38
308.15 K, x1 = 0.192	1272.3 ± 0.4	9.829 ± 0.6
308.15 K, x1 = 0.22	1289 ± 0.4	15.03 ± 0.91
308.15 K, x1 = 0.252	1305 ± 0.5	24.22 ± 1.5
313.15 K, x1 = 0.023	1056.3 ± 0.5	0.876 ± 0.053
313.15 K, x1 = 0.045	1104.8 ± 0.5	1.136 ± 0.069
313.15 K, x1 = 0.07	1148.3 ± 0.4	1.566 ± 0.095
313.15 K, x1 = 0.1	1189 ± 0.4	2.543 ± 0.15
313.15 K, x1 = 0.128	1218.4 ± 0.3	3.485 ± 0.21
313.15 K, x1 = 0.16	1246 ± 0.4	5.438 ± 0.33
313.15 K, x1 = 0.192	1269.2 ± 0.4	8.443 ± 0.51
313.15 K, x1 = 0.22	1285.9 ± 0.4	12.5 ± 0.76
313.15 K, x1 = 0.252	1301.9 ± 0.5	19.81 ± 1.2
318.15 K, x1 = 0.023	1053.7 ± 0.5	0.805 ± 0.049
318.15 K, x1 = 0.045	1102.2 ± 0.5	1.037 ± 0.063
318.15 K, x1 = 0.07	1145.6 ± 0.4	1.45 ± 0.088
318.15 K, x1 = 0.1	1186.1 ± 0.4	2.291 ± 0.14
318.15 K, x1 = 0.128	1215.4 ± 0.3	3.1 ± 0.19
318.15 K, x1 = 0.16	1243 ± 0.3	4.738 ± 0.29
318.15 K, x1 = 0.192	1266.1 ± 0.4	7.253 ± 0.44
318.15 K, x1 = 0.22	1282.8 ± 0.4	10.46 ± 0.63
318.15 K, x1 = 0.252	1298.7 ± 0.4	16.49 ± 1
323.15 K, x1 = 0.023	1051.7 ± 0.5	0.756 ± 0.046
323.15 K, x1 = 0.045	1099.6 ± 0.4	0.953 ± 0.058
323.15 K, x1 = 0.07	1142.8 ± 0.4	1.328 ± 0.08
323.15 K, x1 = 0.1	1183.2 ± 0.4	2.098 ± 0.13
323.15 K, x1 = 0.128	1212.4 ± 0.3	2.776 ± 0.17
323.15 K, x1 = 0.16	1239.9 ± 0.3	4.235 ± 0.26
323.15 K, x1 = 0.192	1263 ± 0.4	6.32 ± 0.38
323.15 K, x1 = 0.22	1279.7 ± 0.4	8.952 ± 0.54
323.15 K, x1 = 0.252	1295.6 ± 0.4	13.88 ± 0.84
328.15 K, x1 = 0.023	1049.5 ± 0.5	0.717 ± 0.043
328.15 K, x1 = 0.045	1097.1 ± 0.4	0.879 ± 0.053
328.15 K, x1 = 0.07	1139.8 ± 0.4	1.22 ± 0.074
328.15 K, x1 = 0.1	1180.2 ± 0.4	1.908 ± 0.12
328.15 K, x1 = 0.128	1209.4 ± 0.3	2.493 ± 0.15
328.15 K, x1 = 0.16	1236.8 ± 0.3	3.696 ± 0.22
328.15 K, x1 = 0.192	1259.9 ± 0.4	5.528 ± 0.34
328.15 K, x1 = 0.22	1276.5 ± 0.4	7.778 ± 0.47
328.15 K, x1 = 0.252	1292.4 ± 0.4	11.84 ± 0.72
333.15 K, x1 = 0.023	1047.3 ± 0.5	0.638 ± 0.039
333.15 K, x1 = 0.045	1094.6 ± 0.4	0.813 ± 0.049
333.15 K, x1 = 0.07	1137.3 ± 0.4	1.123 ± 0.068
333.15 K, x1 = 0.1	1177.3 ± 0.4	1.748 ± 0.11
333.15 K, x1 = 0.128	1206.3 ± 0.3	2.263 ± 0.14
333.15 K, x1 = 0.16	1233.7 ± 0.3	3.324 ± 0.2
333.15 K, x1 = 0.192	1256.7 ± 0.4	4.903 ± 0.3
333.15 K, x1 = 0.22	1273.3 ± 0.4	6.702 ± 0.41
333.15 K, x1 = 0.252	1289.2 ± 0.4	10.27 ± 0.62
338.15 K, x1 = 0.023	1045.1 ± 0.5	0.624 ± 0.038
338.15 K, x1 = 0.045	1092.1 ± 0.4	0.764 ± 0.046
338.15 K, x1 = 0.07	1134.6 ± 0.4	1.051 ± 0.064
338.15 K, x1 = 0.1	1174.6 ± 0.3	1.626 ± 0.098
338.15 K, x1 = 0.128	1203.2 ± 0.3	2.058 ± 0.12
338.15 K, x1 = 0.16	1230.5 ± 0.3	2.988 ± 0.18
338.15 K, x1 = 0.192	1253.5 ± 0.4	4.274 ± 0.26
338.15 K, x1 = 0.22	1270.1 ± 0.4	5.649 ± 0.34
338.15 K, x1 = 0.252	1286 ± 0.4	8.914 ± 0.54
343.15 K, x1 = 0.023	1042.8 ± 0.5	0.579 ± 0.035
343.15 K, x1 = 0.045	1089.6 ± 0.4	0.716 ± 0.043
343.15 K, x1 = 0.07	1131.9 ± 0.4	0.97 ± 0.059
343.15 K, x1 = 0.1	1171.7 ± 0.3	1.49 ± 0.09
343.15 K, x1 = 0.128	1200 ± 0.3	1.882 ± 0.11
343.15 K, x1 = 0.16	1227.3 ± 0.3	2.726 ± 0.17
343.15 K, x1 = 0.192	1250.3 ± 0.4	3.874 ± 0.23
343.15 K, x1 = 0.22	1266.9 ± 0.4	5.218 ± 0.32
343.15 K, x1 = 0.252	1282.7 ± 0.4	7.822 ± 0.47
348.15 K, x1 = 0.023	1040.6 ± 0.5	0.551 ± 0.033
348.15 K, x1 = 0.045	1087.2 ± 0.4	0.675 ± 0.041
348.15 K, x1 = 0.07	1129.2 ± 0.4	0.901 ± 0.055
348.15 K, x1 = 0.1	1168.8 ± 0.3	1.357 ± 0.082
348.15 K, x1 = 0.128	1196.7 ± 0.3	1.733 ± 0.11
348.15 K, x1 = 0.16	1224.1 ± 0.3	2.517 ± 0.15
348.15 K, x1 = 0.192	1247.1 ± 0.4	3.514 ± 0.21
348.15 K, x1 = 0.22	1263.6 ± 0.4	4.632 ± 0.28
348.15 K, x1 = 0.252	1279.5 ± 0.4	6.907 ± 0.42
